Square brackets hold non-standard residues; d marks the D form. Ends that are not written are not given here. Met(O) = CS(=O)CC[C@H](N)C(=O)O; pS = N[C@@H](COP(=O)(O)O)C(=O)O
Tests used:
[1] = system: expanded lymphocyte cultures from deceased donor livers, cirrhotic livers and HCC; assay: ICS for MHC-I-pP reactivity of liver-derived lymphocyte cultures after phosphopeptide-specific expansion; type: cell-based, human; settings: for ppCTL response, Deceased Donor Liver Do 2 / ppCTL response, Deceased Donor Liver Do 3 / ppCTL response, Deceased Donor Liver Do 4 / ppCTL response, Deceased Donor Liver Do 6 / ppCTL response, End-stage Liver Cirrhosis IHL 11 / ppCTL response, End-stage Liver Cirrhosis IHL 12 / ppCTL response, End-stage Liver Cirrhosis IHL 13 / ppCTL response, End-stage Liver Cirrhosis IHL 15 / ppCTL response, HCC Distal HCC 1 / ppCTL response, HCC Tumor HCC 1 / ppCTL response, HCC Distal HCC 4 / ppCTL response, HCC Distal HCC 9 / ppCTL response, HCC Tumor HCC 9 / ppCTL response, HCC Distal HCC 12: pP-specifically expanded culture; for ppCTL response, HCC Distal HCC 1: HCC 1 Distal; for ppCTL response, HCC Tumor HCC 1: HCC 1 Tumor; for ppCTL response, HCC Distal HCC 4: HCC 4 Distal; for ppCTL response, HCC Distal HCC 9: HCC 9 Distal; for ppCTL response, HCC Tumor HCC 9: HCC 9 Tumor; for ppCTL response, HCC Distal HCC 12: HCC 12 Distal
CD8^+ T cells (PBMCs) = assay: Intracellular cytokine staining (ICS) of PBMCs after 7 days of stimulation with MHC-I-pP (healthy donors, HH patients); type: cell-based, human; settings: for Reactive CD8^+ T cell population, HH2: HH patient HH2; for Reactive CD8^+ T cell population, HH3: HH patient HH3; for Reactive CD8^+ T cell population, HH6: HH patient HH6; for Reactive CD8^+ T cell population, HH8: HH patient HH8; for Reactive CD8^+ T cell population, HD1: Healthy donor HD1; for Reactive CD8^+ T cell population, HD4: Healthy donor HD4; for Reactive CD8^+ T cell population, HD5: Healthy donor HD5
Experimental: From this, CD8^+ T cell responses against newly identified MHC class I-associated phosphopeptides in healthy individuals and patients with chronic liver disease were investigated. Twenty-one of the newly identified HCC-associated HLA-A*0201-restricted phosphopeptides were selected (see Table 17) for further immunological testing in HLA-A*0201 positive patients. MHC-I-pP-specific cytotoxic CD8^+ T cell responses (ppCTL) were assessed using intracellular cytokine staining (ICS) and several cytokines and surface markers were assessed in parallel. After 7 days of stimulation with the respective MHC-I-pP and no other cytokines, CD3- and CD8-expressing T cells were stained for at least two different cytokines (IFN-γ, TNF-α) and when required CD107a expression as a marker for their cytotoxic potential.
First, peripheral blood mononuclear cells (PBMCs) from healthy donors and patients with hereditary hemochromatosis (HH) were analyzed. HH is a chronic liver disease characterized by excessive intestinal absorption of dietary iron resulting in a pathological deposition of iron in the liver. PBMCs or lymphocytes from liver tissue were extracted and specifically stimulated with (phospho-) peptides for 7 days before intracellular cytokine staining (ICS). Doublets and dead cells, using a fixable viability dye, were excluded. Lymphocytes were gated on CD3^+ and CD8^+ double positive cells and were analysed for expression of IFNγ, TNFα-, and CD107a.

[2] = system: unexpanded lymphocyte cultures (CD8^+ T cells); assay: ICS for MHC-I-pP reactivity of lymphocyte cultures without expansion (Table 23, No Expansion)
[3] = system: expanded TIL / IHL cultures; assay: ICS for MHC-I-pP reactivity of liver-derived lymphocyte cultures after unspecific rapid expansion protocol (REP); type: cell-based, human

Substance | Reactive CD8^+ T cells, pP-specific Expansion, Do2 [1] | Reactive CD8^+ T cells, pP-specific Expansion, Do4 [1] | Reactive CD8^+ T cells, pP-specific Expansion, HH6 [1] | ppCTL response, Deceased Donor Liver Do 2 [1] | ppCTL response, Deceased Donor Liver Do 3 [1] | ppCTL response, Deceased Donor Liver Do 4 [1] | ppCTL response, Deceased Donor Liver Do 6 [1] | ppCTL response, End-stage Liver Cirrhosis IHL 11 [1] | ppCTL response, End-stage Liver Cirrhosis IHL 12 [1] | ppCTL response, End-stage Liver Cirrhosis IHL 13 [1] | ppCTL response, End-stage Liver Cirrhosis IHL 15 [1] | ppCTL response, HCC Distal HCC 1 [1] | ppCTL response, HCC Tumor HCC 1 [1] | ppCTL response, HCC Distal HCC 4 [1] | ppCTL response, HCC Distal HCC 9 [1] | ppCTL response, HCC Tumor HCC 9 [1] | ppCTL response, HCC Distal HCC 12 [1] | Reactive CD8^+ T cell population, HH2 (CD8^+ T cells (PBMCs)) | Reactive CD8^+ T cell population, HH3 (CD8^+ T cells (PBMCs)) | Reactive CD8^+ T cell population, HH6 (CD8^+ T cells (PBMCs)) | further results
SMTRsPPRV: SRSF8 phosphopeptide, HLA-A*0201 (SMTR[pS]PPRV; listed as Homo sapiens) | 0 (<0.25% reactive CD8^-+ T cells) | 0 (<0.25% reactive CD8^-+ T cells) | 0 (<0.25% reactive CD8^-+ T cells) | 1 (0.25-2.5% reactive CD8-+ T cells) | 0 (<0.25% reactive CD8-+ T cells) | 0 (<0.25% reactive CD8-+ T cells) | 0 (<0.25% reactive CD8-+ T cells) | 0 (<0.25% reactive CD8-+ T cells) | 0 (<0.25% reactive CD8-+ T cells) | 0 (<0.25% reactive CD8-+ T cells) | 6 (>20% reactive CD8-+ T cells) | 0 (<0.25% reactive CD8-+ T cells) | 0 (<0.25% reactive CD8-+ T cells) | 0 (<0.25% reactive CD8-+ T cells) | 0 (<0.25% reactive CD8-+ T cells) | 0 (<0.25% reactive CD8-+ T cells) | 0 (<0.25% reactive CD8-+ T cells) | 0 (<0.25% reactive CD8^-+ T cells) | 0 (<0.25% reactive CD8^-+ T cells) | 0 (<0.25% reactive CD8^-+ T cells) | Reactive CD8^+ T cell population, HH8 (CD8^+ T cells (PBMCs)): 0 (<0.25% reactive CD8^-+ T cells); Reactive CD8^+ T cell population, HH10 (CD8^+ T cells (PBMCs); HH patient HH10): 0 (<0.25% reactive CD8^-+ T cells); Reactive CD8^+ T cell population, HH11 (CD8^+ T cells (PBMCs); HH patient HH11): 0 (<0.25% reactive CD8^-+ T cells); Reactive CD8^+ T cell population, HD1 (CD8^+ T cells (PBMCs)): 0 (<0.25% reactive CD8^-+ T cells); Reactive CD8^+ T cell population, HD2 (CD8^+ T cells (PBMCs); Healthy donor HD2): 0 (<0.25% reactive CD8^-+ T cells); Reactive CD8^+ T cell population, HD3 (CD8^+ T cells (PBMCs); Healthy donor HD3): 0 (<0.25% reactive CD8^-+ T cells); Reactive CD8^+ T cell population, HD4 (CD8^+ T cells (PBMCs)): 0 (<0.25% reactive CD8^-+ T cells); Reactive CD8^+ T cell population, HD5 (CD8^+ T cells (PBMCs)): 0 (<0.25% reactive CD8^-+ T cells); Reactive CD8^+ T cells, No Expansion, Do4 ([2]; Do4): 4 (7.5-10% reactive CD8^-+ T cells); Reactive CD8^+ T cells, No Expansion, HH6 [2]: 0 (<0.25% reactive CD8^-+ T cells); Reactive CD8^+ T cells, Non-specific Expansion, Do2 [3]: 0 (<0.25% reactive CD8^-+ T cells); Reactive CD8^+ T cells, Non-specific Expansion, Do4 [3]: 0 (<0.25% reactive CD8^-+ T cells); Reactive CD8^+ T cells, Non-specific Expansion, HH6 [3]: 0 (<0.25% reactive CD8^-+ T cells)
PmVTLsLNL (P[Met(O)]VTL[pS]LNL; listed as Homo sapiens) | 2 (2.5-5.0% reactive CD8^-+ T cells) | 1 (0.25-2.5% reactive CD8^-+ T cells) | 0 (<0.25% reactive CD8^-+ T cells) | 2 (2.5-5.0% reactive CD8-+ T cells) | 0 (<0.25% reactive CD8-+ T cells) | 2 (2.5-5.0% reactive CD8-+ T cells) | 1 (0.25-2.5% reactive CD8-+ T cells) | 0 (<0.25% reactive CD8-+ T cells) | 0 (<0.25% reactive CD8-+ T cells) | 0 (<0.25% reactive CD8-+ T cells) | 0 (<0.25% reactive CD8-+ T cells) | 0 (<0.25% reactive CD8-+ T cells) | 0 (<0.25% reactive CD8-+ T cells) | 0 (<0.25% reactive CD8-+ T cells) | 0 (<0.25% reactive CD8-+ T cells) | 0 (<0.25% reactive CD8-+ T cells) | 0 (<0.25% reactive CD8-+ T cells) | 0 (<0.25% reactive CD8^-+ T cells) | 0 (<0.25% reactive CD8^-+ T cells) | 0 (<0.25% reactive CD8^-+ T cells) | Reactive CD8^+ T cell population, HH8 (CD8^+ T cells (PBMCs)): 0 (<0.25% reactive CD8^-+ T cells); Reactive CD8^+ T cell population, HD1 (CD8^+ T cells (PBMCs)): 0 (<0.25% reactive CD8^-+ T cells); Reactive CD8^+ T cell population, HD4 (CD8^+ T cells (PBMCs)): 0 (<0.25% reactive CD8^-+ T cells); Reactive CD8^+ T cell population, HD5 (CD8^+ T cells (PBMCs)): 0 (<0.25% reactive CD8^-+ T cells); Reactive CD8^+ T cells, No Expansion, HH6 [2]: 0 (<0.25% reactive CD8^-+ T cells); Reactive CD8^+ T cells, Non-specific Expansion, Do2 [3]: 0 (<0.25% reactive CD8^-+ T cells); Reactive CD8^+ T cells, Non-specific Expansion, Do4 [3]: 1 (0.25-2.5% reactive CD8^-+ T cells); Reactive CD8^+ T cells, Non-specific Expansion, HH6 [3]: 0 (<0.25% reactive CD8^-+ T cells)
RLAsYLDRV: KRT18 phosphopeptide, HLA-A*0201 (RLA[pS]YLDRV; listed as Homo sapiens) | 0 (<0.25% reactive CD8^-+ T cells) | 0 (<0.25% reactive CD8^-+ T cells) | 0 (<0.25% reactive CD8^-+ T cells) | 0 (<0.25% reactive CD8-+ T cells) | 0 (<0.25% reactive CD8-+ T cells) | 0 (<0.25% reactive CD8-+ T cells) | 0 (<0.25% reactive CD8-+ T cells) | 0 (<0.25% reactive CD8-+ T cells) | 0 (<0.25% reactive CD8-+ T cells) | 0 (<0.25% reactive CD8-+ T cells) | 0 (<0.25% reactive CD8-+ T cells) | 0 (<0.25% reactive CD8-+ T cells) | 0 (<0.25% reactive CD8-+ T cells) | 0 (<0.25% reactive CD8-+ T cells) | 0 (<0.25% reactive CD8-+ T cells) | 0 (<0.25% reactive CD8-+ T cells) | 0 (<0.25% reactive CD8-+ T cells) | 3 (5-7.5% reactive CD8^-+ T cells) | 0 (<0.25% reactive CD8^-+ T cells) | 0 (<0.25% reactive CD8^-+ T cells) | Reactive CD8^+ T cell population, HH8 (CD8^+ T cells (PBMCs)): 0 (<0.25% reactive CD8^-+ T cells); Reactive CD8^+ T cell population, HD1 (CD8^+ T cells (PBMCs)): 0 (<0.25% reactive CD8^-+ T cells); Reactive CD8^+ T cell population, HD4 (CD8^+ T cells (PBMCs)): 0 (<0.25% reactive CD8^-+ T cells); Reactive CD8^+ T cell population, HD5 (CD8^+ T cells (PBMCs)): 0 (<0.25% reactive CD8^-+ T cells); Reactive CD8^+ T cells, No Expansion, HH6 [2]: 0 (<0.25% reactive CD8^-+ T cells); Reactive CD8^+ T cells, Non-specific Expansion, Do2 [3]: 0 (<0.25% reactive CD8^-+ T cells); Reactive CD8^+ T cells, Non-specific Expansion, Do4 [3]: 0 (<0.25% reactive CD8^-+ T cells); Reactive CD8^+ T cells, Non-specific Expansion, HH6 [3]: 1 (0.25-2.5% reactive CD8^-+ T cells)

Source: patent US20190374627A1, “TARGET PEPTIDES FOR CANCER THERAPY AND DIAGNOSTICS” (priority 2016, published 2019)
